From patent US20250230193A1, “CYCLIC COMPOUND HAVING SELECTIVE KRAS INHIBITORY EFFECT ON HRAS AND NRAS” (CHUGAI SEIYAKU KABUSHIKI KAISHA, priority 2022, published 2025)

Experiments:
[1] = biological target: GDP-bound HRAS wild-type protein (Homo sapiens, UniProt P01112); experiment: Binding to HRAS by surface plasmon resonance (SPR), Single Cycle Kinetics; conditions: KD ratio, GDP-bound HRAS wild-type vs GDP-bound KRAS wild-type, SPR
[2] = biological target: GDP-bound NRAS wild-type protein (Homo sapiens, UniProt P01111); experiment: Binding to NRAS by surface plasmon resonance (SPR), Single Cycle Kinetics; conditions: KD ratio, GDP-bound NRAS wild-type vs GDP-bound KRAS wild-type, SPR
Sequence of GDP-bound NRAS wild-type protein (P01111 whole entry): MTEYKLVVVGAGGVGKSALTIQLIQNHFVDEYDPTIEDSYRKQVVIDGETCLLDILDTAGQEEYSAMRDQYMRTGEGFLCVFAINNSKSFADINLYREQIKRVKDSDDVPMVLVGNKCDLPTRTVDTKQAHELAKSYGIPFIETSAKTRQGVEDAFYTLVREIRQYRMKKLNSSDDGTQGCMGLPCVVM

Sequence of GDP-bound HRAS wild-type protein (P01112 whole entry): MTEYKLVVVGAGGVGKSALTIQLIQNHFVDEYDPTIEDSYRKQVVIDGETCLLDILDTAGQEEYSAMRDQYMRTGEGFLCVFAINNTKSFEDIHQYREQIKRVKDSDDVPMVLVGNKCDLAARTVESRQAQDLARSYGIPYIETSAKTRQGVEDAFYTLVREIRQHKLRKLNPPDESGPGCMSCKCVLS

SMILES: CCO[C@@H]1C[C@H]2C(=O)NC3(CCC3)C(=O)N(C)[C@@H](C3CCCC3)C(=O)N(C)[C@H](C(=O)N(C)C)CC(=O)N(C)[C@@H](CC)C(=O)N[C@@H]([C@@H](C)CC)C(=O)N(C)CC(=O)N(C)[C@H]3C[C@@H](C)CCN(C3=O)[C@@H](Cc3ccc(C(F)(F)F)cc3)C(=O)N(C)CC(=O)N[C@@H](CCc3cc(F)c(C(F)(F)F)c(F)c3)C(=O)N2C1 [PP1020]
- HRAS/KRAS (ratio of KD value with respect to HRAS to KD value with respect to KRAS) [1]: B (a compound having 3 or more and less than 10 is denoted as B)
- NRAS/KRAS (ratio of KD value with respect to NRAS to KD value with respect to KRAS) [2]: C (A compound having a KD ratio of 0.1 or more and less than 3 is denoted as C)

SMILES: CCO[C@@H]1C[C@H]2C(=O)NC3(CCC3)C(=O)N(C)[C@@H](C3CCCC3)C(=O)N(C)[C@H](C(=O)N(C)C)CC(=O)N(C)[C@@H](CC)C(=O)N[C@@H]([C@@H](C)CC)C(=O)N3CC[C@H]3C(=O)N(C)[C@H]3C[C@@H](C)CCN(C3=O)[C@@H](Cc3ccc(C(F)(F)F)cc3)C(=O)N(C)CC(=O)N[C@@H](CCc3cc(F)c(C(F)(F)F)c(F)c3)C(=O)N2C1 [PP1021]
- HRAS/KRAS (ratio of KD value with respect to HRAS to KD value with respect to KRAS) [1]: B (a compound having 3 or more and less than 10 is denoted as B)
- NRAS/KRAS (ratio of KD value with respect to NRAS to KD value with respect to KRAS) [2]: C (A compound having a KD ratio of 0.1 or more and less than 3 is denoted as C)

SMILES: CCO[C@@H]1C[C@H]2C(=O)NC3(CCCC3)C(=O)N(C)[C@@H](C3CCCC3)C(=O)N(C)[C@H](C(=O)N(C)C)CC(=O)N(C)[C@@H](CC)C(=O)N[C@@H]([C@@H](C)CC)C(=O)N(C)CC(=O)N(C)[C@H]3C[C@@H](C)CCN(C3=O)[C@@H](Cc3ccc(C(F)(F)F)cc3)C(=O)N(C)CC(=O)N[C@@H](CCc3cc(F)c(C(F)(F)F)c(F)c3)C(=O)N2C1 [PP1022]
- HRAS/KRAS (ratio of KD value with respect to HRAS to KD value with respect to KRAS) [1]: B (a compound having 3 or more and less than 10 is denoted as B)
- NRAS/KRAS (ratio of KD value with respect to NRAS to KD value with respect to KRAS) [2]: C (A compound having a KD ratio of 0.1 or more and less than 3 is denoted as C)

SMILES: CCO[C@@H]1C[C@H]2C(=O)NC3(CCCC3)C(=O)N(C)[C@@H](C3CCCC3)C(=O)N(C)[C@H](C(=O)N3CCOCC3)CC(=O)N(C)[C@@H](CC(C)C)C(=O)N[C@@H]([C@@H](C)CC)C(=O)N(C)CC(=O)N(C)[C@H]3C[C@@H](C)CCN(C3=O)[C@@H](Cc3ccc(C(F)(F)F)cc3)C(=O)N(C)CC(=O)N[C@@H](CCc3cc(F)c(C(F)(F)F)c(F)c3)C(=O)N2C1 [PP1024]
- HRAS/KRAS (ratio of KD value with respect to HRAS to KD value with respect to KRAS) [1]: B (a compound having 3 or more and less than 10 is denoted as B)
- NRAS/KRAS (ratio of KD value with respect to NRAS to KD value with respect to KRAS) [2]: B (a compound having 3 or more and less than 10 is denoted as B)

SMILES: CCO[C@@H]1C[C@H]2C(=O)NC3(CCC3)C(=O)N(C)[C@@H](C3CCCC3)C(=O)N(C)[C@H](C(=O)N3CCOCC3)CC(=O)N(C)[C@@H](CC(C)C)C(=O)N[C@@H]([C@@H](C)CC)C(=O)N(C)CC(=O)N(C)[C@H]3C[C@@H](C)CCN(C3=O)[C@@H](Cc3ccc(C(F)(F)F)cc3)C(=O)N(C)CC(=O)N[C@@H](CCc3cc(F)c(C(F)(F)F)c(F)c3)C(=O)N2C1 [PP1025]
- HRAS/KRAS (ratio of KD value with respect to HRAS to KD value with respect to KRAS) [1]: B (a compound having 3 or more and less than 10 is denoted as B)
- NRAS/KRAS (ratio of KD value with respect to NRAS to KD value with respect to KRAS) [2]: C (A compound having a KD ratio of 0.1 or more and less than 3 is denoted as C)

SMILES: CCO[C@@H]1C[C@H]2C(=O)NC3(CCC3)C(=O)N(C)[C@@H](C3CCCC3)C(=O)N(C)[C@H](C(=O)N3CCOCC3)CC(=O)N(C)[C@@H](CC(C)C)C(=O)N[C@@H]([C@@H](C)CC)C(=O)N3CC[C@H]3C(=O)N(C)[C@H]3C[C@@H](C)CCN(C3=O)[C@@H](Cc3ccc(C(F)(F)F)cc3)C(=O)N(C)CC(=O)N[C@@H](CCc3cc(F)c(C(F)(F)F)c(F)c3)C(=O)N2C1 [PP1026]
- HRAS/KRAS (ratio of KD value with respect to HRAS to KD value with respect to KRAS) [1]: B (a compound having 3 or more and less than 10 is denoted as B)
- NRAS/KRAS (ratio of KD value with respect to NRAS to KD value with respect to KRAS) [2]: B (a compound having 3 or more and less than 10 is denoted as B)

SMILES: CCO[C@@H]1C[C@H]2C(=O)NC3(CCC3)C(=O)N(C)[C@@H](C3CCCC3)C(=O)N(C)[C@H](C(=O)N3CCOCC3)CC(=O)N(C)[C@@H](CC)C(=O)N[C@@H]([C@@H](C)CC)C(=O)N(C)CC(=O)N(C)[C@H]3C[C@@H](C)CCN(C3=O)[C@@H](Cc3ccc(C(F)(F)F)cc3)C(=O)N(C)CC(=O)N[C@@H](CCc3cc(F)c(C(F)(F)F)c(F)c3)C(=O)N2C1 [PP1027]
- HRAS/KRAS (ratio of KD value with respect to HRAS to KD value with respect to KRAS) [1]: B (a compound having 3 or more and less than 10 is denoted as B)
- NRAS/KRAS (ratio of KD value with respect to NRAS to KD value with respect to KRAS) [2]: C (A compound having a KD ratio of 0.1 or more and less than 3 is denoted as C)

SMILES: CCO[C@@H]1C[C@H]2C(=O)NC3(CCC3)C(=O)N(C)[C@@H](C3CCCC3)C(=O)N(C)[C@H](C(=O)N3CCOCC3)CC(=O)N(C)[C@@H](CC)C(=O)N[C@@H]([C@@H](C)CC)C(=O)N3CC[C@H]3C(=O)N(C)[C@H]3C[C@@H](C)CCN(C3=O)[C@@H](Cc3ccc(C(F)(F)F)cc3)C(=O)N(C)CC(=O)N[C@@H](CCc3cc(F)c(C(F)(F)F)c(F)c3)C(=O)N2C1 [PP1028]
- HRAS/KRAS (ratio of KD value with respect to HRAS to KD value with respect to KRAS) [1]: B (a compound having 3 or more and less than 10 is denoted as B)
- NRAS/KRAS (ratio of KD value with respect to NRAS to KD value with respect to KRAS) [2]: B (a compound having 3 or more and less than 10 is denoted as B)

SMILES: CCO[C@@H]1C[C@H]2C(=O)NC3(CCCC3)C(=O)N(C)[C@@H](C3CCCC3)C(=O)N(C)[C@H](C(=O)N3CCOCC3)CC(=O)N(C)[C@@H](CC)C(=O)N[C@@H]([C@@H](C)CC)C(=O)N(C)CC(=O)N(C)[C@H]3C[C@@H](C)CCN(C3=O)[C@@H](Cc3ccc(C(F)(F)F)cc3)C(=O)N(C)CC(=O)N[C@@H](CCc3cc(F)c(C(F)(F)F)c(F)c3)C(=O)N2C1 [PP1029]
- HRAS/KRAS (ratio of KD value with respect to HRAS to KD value with respect to KRAS) [1]: B (a compound having 3 or more and less than 10 is denoted as B)
- NRAS/KRAS (ratio of KD value with respect to NRAS to KD value with respect to KRAS) [2]: C (A compound having a KD ratio of 0.1 or more and less than 3 is denoted as C)

SMILES: CCO[C@@H]1C[C@H]2C(=O)NC3(CCC3)C(=O)N(C)[C@@H](C3CCCC3)C(=O)N(C)[C@H](C(=O)N3CCOCC3)CC(=O)N(CC)[C@@H](CC(C)C)C(=O)N[C@@H]([C@@H](C)CC)C(=O)N(C)CC(=O)N(C)[C@H]3C[C@@H](C)CCN(C3=O)[C@@H](Cc3ccc(C(F)(F)F)cc3)C(=O)N(C)CC(=O)N[C@@H](CCc3cc(F)c(C(F)(F)F)c(F)c3)C(=O)N2C1 [PP1030]
- HRAS/KRAS (ratio of KD value with respect to HRAS to KD value with respect to KRAS) [1]: B (a compound having 3 or more and less than 10 is denoted as B)
- NRAS/KRAS (ratio of KD value with respect to NRAS to KD value with respect to KRAS) [2]: B (a compound having 3 or more and less than 10 is denoted as B)

SMILES: CCO[C@@H]1C[C@H]2C(=O)NC3(CCCC3)C(=O)N(C)[C@@H](C3CCCC3)C(=O)N(C)[C@H](C(=O)N(C)C)CC(=O)N(C)[C@@H](CC(C)C)C(=O)N[C@@H]([C@@H](C)CC)C(=O)N(C)CC(=O)N(C)[C@H]3CC(C)=CCN(C3=O)[C@@H](Cc3ccc(C(F)(F)F)cc3)C(=O)N(C)CC(=O)N[C@@H](CCc3cc(F)c(C(F)(F)F)c(F)c3)C(=O)N2C1 [PP1031]
- HRAS/KRAS (ratio of KD value with respect to HRAS to KD value with respect to KRAS) [1]: C (A compound having a KD ratio of 0.1 or more and less than 3 is denoted as C)
- NRAS/KRAS (ratio of KD value with respect to NRAS to KD value with respect to KRAS) [2]: C (A compound having a KD ratio of 0.1 or more and less than 3 is denoted as C)

SMILES: CCO[C@@H]1C[C@H]2C(=O)NC3(CCC3)C(=O)N(C)[C@@H](C3CCCC3)C(=O)N(C)[C@H](C(=O)N(C)C)CC(=O)N(C)[C@@H](CC(C)C)C(=O)N[C@@H]([C@@H](C)CC)C(=O)N(C)CC(=O)N(C)[C@H]3CC(C)=CCN(C3=O)[C@@H](Cc3ccc(C(F)(F)F)cc3)C(=O)N(C)CC(=O)N[C@@H](CCc3cc(F)c(C(F)(F)F)c(F)c3)C(=O)N2C1 [PP1032]
- HRAS/KRAS (ratio of KD value with respect to HRAS to KD value with respect to KRAS) [1]: C (A compound having a KD ratio of 0.1 or more and less than 3 is denoted as C)
- NRAS/KRAS (ratio of KD value with respect to NRAS to KD value with respect to KRAS) [2]: C (A compound having a KD ratio of 0.1 or more and less than 3 is denoted as C)

SMILES: CCO[C@@H]1C[C@H]2C(=O)NC3(CCC3)C(=O)N(C)[C@@H](C3CCCC3)C(=O)N(C)[C@H](C(=O)N(C)C)CC(=O)N(C)[C@@H](CC(C)C)C(=O)N[C@@H]([C@@H](C)CC)C(=O)N3CC[C@H]3C(=O)N(C)[C@H]3CC(C)=CCN(C3=O)[C@@H](Cc3ccc(C(F)(F)F)cc3)C(=O)N(C)CC(=O)N[C@@H](CCc3cc(F)c(C(F)(F)F)c(F)c3)C(=O)N2C1 [PP1033]
- HRAS/KRAS (ratio of KD value with respect to HRAS to KD value with respect to KRAS) [1]: C (A compound having a KD ratio of 0.1 or more and less than 3 is denoted as C)
- NRAS/KRAS (ratio of KD value with respect to NRAS to KD value with respect to KRAS) [2]: C (A compound having a KD ratio of 0.1 or more and less than 3 is denoted as C)

SMILES: CCO[C@@H]1C[C@H]2C(=O)NC3(CCC3)C(=O)N(C)[C@@H](C3CCCC3)C(=O)N(C)[C@H](C(=O)N(C)C)CC(=O)N(C)[C@@H](CC)C(=O)N[C@@H]([C@@H](C)CC)C(=O)N(C)CC(=O)N(C)[C@H]3CC(C)=CCN(C3=O)[C@@H](Cc3ccc(C(F)(F)F)cc3)C(=O)N(C)CC(=O)N[C@@H](CCc3cc(F)c(C(F)(F)F)c(F)c3)C(=O)N2C1 [PP1034]
- HRAS/KRAS (ratio of KD value with respect to HRAS to KD value with respect to KRAS) [1]: C (A compound having a KD ratio of 0.1 or more and less than 3 is denoted as C)
- NRAS/KRAS (ratio of KD value with respect to NRAS to KD value with respect to KRAS) [2]: C (A compound having a KD ratio of 0.1 or more and less than 3 is denoted as C)

SMILES: CCO[C@@H]1C[C@H]2C(=O)NC3(CCC3)C(=O)N(C)[C@@H](C3CCCC3)C(=O)N(C)[C@H](C(=O)N(C)C)CC(=O)N(C)[C@@H](CC)C(=O)N[C@@H]([C@@H](C)CC)C(=O)N3CC[C@H]3C(=O)N(C)[C@H]3CC(C)=CCN(C3=O)[C@@H](Cc3ccc(C(F)(F)F)cc3)C(=O)N(C)CC(=O)N[C@@H](CCc3cc(F)c(C(F)(F)F)c(F)c3)C(=O)N2C1 [PP1035]
- HRAS/KRAS (ratio of KD value with respect to HRAS to KD value with respect to KRAS) [1]: C (A compound having a KD ratio of 0.1 or more and less than 3 is denoted as C)
- NRAS/KRAS (ratio of KD value with respect to NRAS to KD value with respect to KRAS) [2]: C (A compound having a KD ratio of 0.1 or more and less than 3 is denoted as C)
